Measured values from US12629364B2, “Methods of treating cancers overexpressing CARM1 with EZH2 inhibitors and platinum-based antineoplastic drugs” (The Wistar Institute of Anatomy and Biology, priority 2016, dated 2026).

Legend:
[1] = tested on: promoter regions of the human DAB2, DLC1, NOXA and TIMP3 genes; assay: ChIP-qPCR at target gene promoters; format: cell-based; settings: A1847 cells
From the text: FIGS. 58 to 61 illustrate the results of a ChIP analysis using anti-EZH2 (FIG. 58), anti-H3K27Me3 (FIG. 59), anti-BAF155 (FIG. 60), or anti-RNA Pol II (FIG. 61) antibodies. An isotype matched IgG was used as a negative control. ChIP products were subjected to qPCR analysis using primers specific for the promoter regions of the human DAB2, DLC1, and NOXA genes. Data is representative of three independent experiments. *p<0.001 compared with IgG controls and #p<0.001 compared with parental controls.
FIGS. 62 to 65 illustrate the results of a ChIP analysis in parental control and CARM1 knockout A1847 cells treated with 10 μM GSK 126 or vehicle controls. The cells were subjected to ChIP analysis using anti-EZH2 (FIG. 62), anti-H3K27Me3 (FIG. 63), anti-BAF155 (FIG. 64), or anti-RNA Pol II (FIG. 65) antibodies. An isotype-matched IgG was used as a negative control. ChIP products were subjected to qPCR analysis using primers specific for the promoter regions of the human TIMP3 genes. Mean of three independent experiments with SEM. *p<0.001 compared with controls.
ChIP was performed as described in Tu et al. Developmental Cell (2011) 21:1077-91. The following antibodies were used to perform ChIP: anti-H3K27Me3 (Cell Signaling, Cat. No: 9733), anti-BAF155 (Santa Cruz, Cat. No: sc-9746), anti-RNA polymerase II (Santa Cruz, Cat. No: sc-899) or anti-EZH2 (Cell Signaling, Cat. No: 5246). An isotype matched IgG was used as a negative control. ChIP DNA was analyzed by quantitative PCR against the promoter of the indicated genes using the following primers: DAB2 Forward: 5′-[…]-3′ (SEQ ID NO: 10) and DAB2 Reverse: 5′-[…]-3′ (SEQ ID NO: 11); DLC1 Forward: 5′-[…]-3′ (SEQ ID NO: 12) and DLC1 Reverse: 5′-[…]-3′ (SEQ ID NO: 13); NOXA Forward: 5′-[…]-3′ (SEQ ID NO: 14) and NOXA Reverse: 5′-[…]-3′ (SEQ ID NO: 15); TIMP3 Forward: 5′-[…]-3′ (SEQ ID NO: 16) and TIMP3 Reverse: 5′-[…]-3′ (SEQ ID NO: 17).

[2] = tested on: tumors formed by CARM1 knockout cells; assay: IHC and qRT-PCR of dissected CARM1 knockout tumors; format: in vivo, NSG mice
Protocol: FIGS. 82 to 84 illustrate immunohistochemical analysis for serial sections of tumors dissected from mice injected with CARM1 knockout A1847 cells. Serial sections of tumors dissected from the indicated treatment groups described in FIGS. 73 to 75 were subjected to immunohistochemical staining for H3K27Me3, E7H2, cleaved caspase 3, and Ki67 (FIG. 82). Scale bar=50 μm. Histological score (H-score) of the indicated proteins was calculated for 3 separate fields from 5 tumors from 5 individual mice from each of the indicated groups (FIG. 83). Expression of the indicated EZH2/BAF155 target genes was determined by qRT-PCR in the tumors dissected from the indicated treatment groups (FIG. 84).

[3] = tested on: CARM1-expressing A1847 tumors; assay: Intrabursal orthotopic xenograft, CARM1-expressing A1847 cells; format: in vivo, NSG mice; settings: 50 mg/kg daily i.p., three weeks
Protocol: FIG. 76 illustrates images of reproductive tracks with tumors from control or GSK126 treated mice. CARM1-high A1847 ovarian cancer cells were unilaterally injected into the ovarian bursa sac of immunocompromised mice (n=5/group). Tumors were allowed to establish for one week before the mice were randomized into two different treatment groups. Mice were treated with vehicle control or GSK126 (50 mg/kg daily) for an additional three weeks. At the end of treatment, the mice were euthanized.
FIG. 77 illustrates tumor weights for the tumors described in FIG. 76. Tumor weight was measured as a surrogate for tumor burden from the control and GSK126 treated mice.
FIG. 78 illustrates the percent survival for the animals treated in FIG. 76. After stopping treatment, the mice from the indicated groups were followed for survival. […] P-value was calculated by log-rank test.
The protocols were approved by the Institutional Animal Care and Use Committee (IACUC). For in vivo experiments, the sample size of 5 mice per group was determined based on the data shown from in vitro experiments. […] At the end of the experiments, tumors were surgically dissected and tumor burden was calculated based on tumor weight. For survival experiments, after stopping the treatment, the mice were followed for mortality or when the tumor burden reached 10% of body weight as determined by The Wistar Institute IACUC guideline.

[4] = tested on: CARM1-expressing A1847 tumors; assay: Subcutaneous xenograft, CARM1-expressing A1847 cells; format: in vivo, NSG mice; settings: 50 mg/kg daily i.p., three weeks
Protocol: FIGS. 73 to 75 illustrate that EZH2 inhibition suppressed the growth of CARM1-expressing ovarian tumors in vivo. FIG. 73 illustrates images of tumors dissected from control or GSK126 treated mice. CARM1-high A1847 cells were injected subcutaneously into immunocompromised NSG mice (n=5/group). Tumors were allowed to establish for one week before the mice were randomized into two different treatment groups. Mice were treated with vehicle control or GSK126 (50 mg/kg daily) for an additional three weeks. At the end of treatment, the mice were euthanized. Bar=1 cm. FIG. 74 illustrates a difference in tumor size measured as a surrogate for tumor burden from the control and GSK 126 treated mice at the indicated time point. FIG. 75 illustrates a difference in tumor weight measured as a surrogate for tumor burden from control and GSK 126-treated mice. The mice were injected with CARM1 knockout A1847 cells.
The protocols were approved by the Institutional Animal Care and Use Committee (IACUC). 5×10^6 control A1847 or A1847 CARM1 knockout cells were unilaterally injected subcutaneously into 6-8-week old female immunocompromised NSG mice (n=5 per group). […] Tumor size was measured every 3 days for 3 weeks. At end of the experiments, tumors were surgically dissected and tumor burden was calculated based on tumor weight.

CC[C@H](C)n1cc(C)c2c(C(=O)NCc3c(C)cc(C)[nH]c3=O)cc(-c3ccc(N4CCNCC4)nc3)cc21 [GSK126, (S)-1-(sec-butyl)-N-((4,6-dimethyl-2-oxo-1,2-dihydropyridin-3-yl)methyl)-3-methyl-6-(6-(piperazin-1-yl)pyridin-3-yl)-1H-indole-4-carboxamide]
association of BAF155 and Pol II with the TIMP3 promoter ([1]; 10 μM): CARM1 KO but not EZH2 inhibitor GSK 126 treatment decreased the association | EZH2's association with its target genes ([1]; DAB2, DLC1, NOXA loci): without affecting EZH2's association with its target genes | H3K27Me3 occupancy of target genes ([1]; DAB2, DLC1, NOXA loci): decreased H3K27Me3 occupancy | expression of Ki67 ([2]; IHC): did not affect the expression of Ki67 and cleaved caspase 3 | expression of cleaved caspase 3 ([2]; IHC): did not affect the expression of Ki67 and cleaved caspase 3 | expression of EZH2/BAF155 target genes ([2]; qRT-PCR): did not increase the expression | tumor growth (tumor weight) [3]: significantly inhibited | tumor growth [4]: significantly inhibited the growth of CARM1-expressing tumors
